Data taken from US20220096379A1, “SELF-EMULSIFYING DRUG FORMULATION FOR IMPROVING MEMBRANE PERMEABILITY OF COMPOUND” (Chugai Seiyaku Kabushiki Kaisha, priority 2016, published 2022).
Where two headings read alike, the source gives them in different places. Starred links: 1 amine or outer side, 2 acyl side, 3 side chain; linkers in the order of their positions; H or OH if unused. Positions of bridges follow the written chain, without caps; N, C: chain ends. Non-standard residues stand in square brackets, D forms with d. Residues, ends and D or L forms follow the SMILES beside them. *: point of attachment. NMeF = CN[C@@H](Cc1ccccc1)C(=O)O; NMeI = CC[C@H](C)[C@H](NC)C(=O)O; NMeβAla = CN(CCC(=O)[*:2])[*:1]; NMeL = CN[C@@H](CC(C)C)C(=O)O; NMeA = CN[C@@H](C)C(=O)O; Piperidide = C1CCN(*)CC1; Sar = CNCC(=O)O; tBu = CC(C)(C)*

What was measured:
Caco-2 cells = details: cited from earlier work; for decrease in the concentration on the Apical side: 120 minutes of incubation
[1] = Caco-2 membrane permeability evaluation (improved method, 20-24 h pre-incubation, 96-well); type: in vitro ADME; details: human; for Papp at 180 min: commercially available middle molecular weight compounds; for Papp A→B at 180 min: cyclic peptides, pre-incubation 20-24 h, apical pH 6.0, basal pH 7.4 4% BSA
Method: After Caco-2 cells were cultured on a 96-well transwell for three weeks, DMEM+FaSSIF (1% DMSO)+the compound was added to the Apical side and DMEM was added to the Basal side, and this was pre-incubated under 5% CO2 at 37° C. and 80 rpm for 20 hours to 24 hours. After pre-incubation, the pre-incubation solutions on the Apical and Basal sides were removed by aspiration and washed, a permeability test was initiated by adding FaSSIF/HBSS buffer (pH 6.0) containing the compound to the Apical side and HBSS buffer (pH 7.4) containing 4% BSA to the Basal side. Each well was shaken under 5% CO2, at 37° C. and 80 rpm. […] The permeability coefficient was calculated from the amount of permeation.
More specifically, after Caco-2 cells were cultured on a 96-well transwell for three weeks, DMEM+FaSSIF (1% DMSO)+the compound was added to the Apical side and DMEM was added to the Basal side, and this was pre-incubated at 5% CO2, 37° C., and 80 rpm for 20 hours to 24 hours. After pre-incubation, the pre-incubation solutions on the Apical side and on the Basal side were removed by aspiration and washed, FaSSIF/HBSS buffer (1% DMSO) (pH 6.0) containing the compound was added to the Apical side, and HBSS buffer (4% BSA) (pH 7.4) was added to the Basal side, and membrane permeability assays were initiated. […] From the amount of permeation, the membrane permeability coefficient (Papp) was calculated.

[2] = Log D (pH 7.4) measurement, n-octanol/buffer; details: n-octanol/pH 7.4 buffer
Method: (§1) A two-phase separated solution of n-octanol and a pH 7.4 buffer was prepared, a DMSO solution of the drug was added to the prepared two-phase-separated solution. After shaking (room temperature, 1800 rpm, two hours), the solution was centrifuged (3000 rpm, ten minutes), only the buffer fractions were collected, and drug concentrations in the buffer fractions were measured by LC/MS. Log D (pH 7.4) was calculated from the measured drug concentrations.

[3] = cited from earlier work
physchem = details: pH 7.4
Method: as §1

For COCCc1ccc(OCC(O)CNC(C)C)cc1 (stereo not drawn) [metoprolol], the “decrease in the concentration on the Apical side” value (Caco-2 cells) is given as “approximately 20%”.
For CC[C@H]1OC(=O)[C@H](C)C(=O)[C@H](C)[C@@H](O[C@@H]2O[C@H](C)C[C@H](N(C)C)[C@H]2O)[C@](C)(OC)C[C@@H](C)C(=O)[C@H](C)[C@H]2N(CCCCn3cnc(-c4cccnc4)c3)C(=O)O[C@]12C [Telithromycin], the Papp at 180 min [1] was 0.319 ×10⁻⁶ cm/s and the logD [2] was 2.1.
With C=CC[C@@H]1/C=C(\C)C[C@H](C)C[C@H](OC)[C@H]2O[C@@](O)(C(=O)C(=O)N3CCCC[C@H]3C(=O)O[C@H](/C(C)=C/[C@@H]3CC[C@@H](O)[C@H](OC)C3)[C@H](C)[C@@H](O)CC1=O)[C@H](C)C[C@@H]2OC [Tacrolimus] the Papp at 180 min [1] was 2.48 ×10⁻⁶ cm/s and the logD [2] was 4.19.
For CC[C@H]1OC(=O)[C@H](C)[C@@H](O[C@H]2C[C@@](C)(OC)[C@@H](O)[C@H](C)O2)[C@H](C)[C@@H](O[C@@H]2O[C@H](C)C[C@H](N(C)C)[C@H]2O)[C@](C)(O)C[C@@H](C)/C(=N\OCOCCOC)[C@H](C)[C@@H](O)[C@]1(C)O [Roxithromycin], the Papp at 180 min [1] was 0.108 ×10⁻⁶ cm/s and the logD [2] was 2.04.
CO[C@H]1/C=C/O[C@@]2(C)Oc3c(C)c(O)c4c(O)c(c(/C=N/N5CCN(C6CCCC6)CC5)c(O)c4c3C2=O)NC(=O)/C(C)=C\C=C\[C@H](C)[C@H](O)[C@@H](C)[C@@H](O)[C@@H](C)[C@H](OC(C)=O)[C@@H]1C [Rifapentine] showed a Papp at 180 min [1] of 5.12 ×10⁻⁶ cm/s and a logD [2] of 2.45.
In the case of CC(C)C[C@@H]1NC(=O)[C@H](Cc2ccccc2)N(C)C(=O)[C@H](Cc2ccccc2)N(C)C(=O)[C@H](CC(C)C)NC(=O)[C@H](C)N(C)C(=O)[C@H]([C@@H](C)O)NC(=O)[C@H](C)N(C)C(=O)C[C@@H](C(=O)N2CCCCC2)NC(=O)[C@H](CC(C)C)N(C)C1=O [Compound (4)] ([NMeA]T[NMeA]L[NMeF][NMeF]L[NMeL]D-Piperidide; lactam N-9), the Papp A→B at 180 min [1] is listed as 4.14 ×10⁻⁶ cm/s, the “intrinsic hepatic clearance CLh int” value ([3]; human liver microsomes) is listed as 189 μL/min/mg protein and the logD at 2 h [2] is listed as 5.17.
With CC(=O)O[C@H]1C(=O)[C@@]2(C)[C@H]([C@H](OC(=O)c3ccccc3)[C@]3(O)C[C@H](OC(=O)[C@H](O)[C@@H](NC(=O)c4ccccc4)c4ccccc4)C(C)=C1C3(C)C)[C@]1(OC(C)=O)CO[C@@H]1C[C@@H]2O [Paclitaxel] the Papp at 180 min [1] was 0.138 ×10⁻⁶ cm/s and the logD [2] was 3.36.
In the case of CC[C@H](C)[C@H]1C(=O)N[C@H](C(=O)N2CCCCC2)CC(=O)N[C@H](C(C)C)C(=O)N(C)[C@@H](Cc2ccccc2)C(=O)N(C)[C@@H](CC(C)C)C(=O)N[C@@H]([C@@H](C)O)C(=O)N(C)CC(=O)N(C)[C@@H](CC(C)C)C(=O)N[C@@H](COC(C)(C)C)C(=O)N1C [Compound (5)] ([dV][NMeF][NMeL]T[Sar][NMeL]S(tBu)[NMeI]D-Piperidide; lactam N-9), the Papp A→B at 180 min [1] is listed as 1.85 ×10⁻⁶ cm/s, the “intrinsic hepatic clearance CLh int” value ([3]; human liver microsomes) is listed as 58 μL/min/mg protein and the logD at 2 h [2] is listed as 4.31.
For CCC(C)n1ncn(-c2ccc(N3CCN(c4ccc(OCC5COC(Cn6cncn6)(c6ccc(Cl)cc6Cl)O5)cc4)CC3)cc2)c1=O (stereo not drawn) [Itraconazole], the Papp at 180 min [1] was 1.06 ×10⁻⁶ cm/s and the logD [2] was 4.29.
In the case of CC[C@H](C)[C@H]1C(=O)N(C)[C@@H](C)C(=O)N(C)[C@@H](Cc2ccccc2)C(=O)N[C@@H]([C@@H](C)O)C(=O)N(C)[C@@H](Cc2ccccc2)C(=O)N(C)[C@@H](CC(C)C)C(=O)N2CCC[C@H]2C(=O)N[C@H](C(=O)N2CCCCC2)CC(=O)N[C@@H](C)C(=O)NCC(=O)N(C)[C@@H](CC(C)C)C(=O)N1C [Compound (1)] (AG[NMeL][NMeI][NMeA][NMeF]T[NMeF][NMeL]PD-Piperidide; lactam N-11), the Papp A→B at 180 min [1] is given as 0.262 ×10⁻⁶ cm/s, the logD at 2 h (physchem) is given as 5.19 and the “intrinsic hepatic clearance CLh int” value ([3]; human liver microsomes) is given as 74 μL/min/mg protein.
For CC[C@H]1OC(=O)[C@H](C)[C@@H](O[C@H]2C[C@@](C)(OC)[C@@H](O)[C@H](C)O2)[C@H](C)[C@@H](O[C@@H]2O[C@H](C)C[C@H](N(C)C)[C@H]2O)[C@](C)(O)C[C@@H](C)CN(C)[C@H](C)[C@@H](O)[C@]1(C)O [Azithromycin], the Papp at 180 min [1] was 0.515 ×10⁻⁶ cm/s and the logD [2] was 0.62.
In the case of CCC1=C[C@@H]2CN(C1)Cc1c([nH]c3ccccc13)[C@@](C(=O)OC)(c1cc3c(cc1OC)N(C)[C@H]1[C@@](O)(C(=O)OC)[C@H](OC(C)=O)[C@]4(CC)C=CCN5CC[C@]31[C@@H]54)C2 [Vinorelbine], the Papp at 180 min [1] is reported as 0.0903 ×10⁻⁶ cm/s and the logD [2] is reported as 2.82.
For C[C@@H]1[C@H](O)[C@@H](C)/C=C/C=C/C=C/C=C/C=C/C=C/C=C/[C@H](O[C@@H]2O[C@H](C)[C@@H](O)[C@H](N)[C@@H]2O)C[C@@H]2O[C@](O)(C[C@@H](O)C[C@@H](O)[C@H](O)CC[C@@H](O)C[C@@H](O)CC(=O)O[C@H]1C)C[C@H](O)[C@H]2C(=O)O [AmphotericinB], the Papp at 180 min [1] was 0.0736 ×10⁻⁶ cm/s and the logD [2] was 0.11.
For CC[C@H](C)[C@H]1C(=O)N[C@@H](COC(C)(C)C)C(=O)N[C@H](C(=O)N2CCCCC2)CC(=O)N(C)[C@@H](C)C(=O)N(C)[C@@H](Cc2ccccc2)C(=O)N(C)CC(=O)N(C)[C@@H](CC(C)C)C(=O)N[C@@H]([C@@H](C)O)C(=O)N(C)[C@@H](C)C(=O)N(C)[C@@H](CC(C)C)C(=O)N1C [Compound (2)] ([NMeA][NMeF][Sar][NMeL]T[NMeA][NMeL][NMeI]S(tBu)D-Piperidide; lactam N-10), the logD at 2 h (physchem) is listed as 4.43 and the “intrinsic hepatic clearance CLh int” value ([3]; human liver microsomes) is listed as 48 μL/min/mg protein.
In the case of CC(C)NCC(O)COc1cccc2ccccc12 (stereo not drawn) [propranolol], the “decrease in the concentration on the Apical side” value (Caco-2 cells) is given as “approximately 40%” and the “added drug distributed in the cells after completion of incubation” value (Caco-2 cells) is given as “approximately 8%”.
CC(C)c1nc(CN(C)C(=O)N[C@H](C(=O)N[C@@H](Cc2ccccc2)C[C@H](O)[C@H](Cc2ccccc2)NC(=O)OCc2cncs2)C(C)C)cs1 [Ritonavir] showed a Papp at 180 min [1] of 1.74 ×10⁻⁶ cm/s and a logD [2] of 4.29.
For CC[C@H](C)[C@H]1C(=O)N[C@H](C(=O)N2CCCCC2)CC(=O)N[C@H](C(C)C)C(=O)N(C)[C@@H](CC(C)C)C(=O)N(C)[C@@H](Cc2ccccc2)C(=O)N(C)[C@@H](C)C(=O)N[C@@H]([C@@H](C)O)C(=O)N(C)CC(=O)N(C)[C@@H](CC(C)C)C(=O)N[C@@H](COC(C)(C)C)C(=O)N1C [Compound (3)] ([dV][NMeL][NMeF][NMeA]T[Sar][NMeL]S(tBu)[NMeI]D-Piperidide; lactam N-10), the Papp A→B at 180 min [1] is given as 0.249 ×10⁻⁶ cm/s, the logD at 2 h (physchem) is given as 4.18 and the “intrinsic hepatic clearance CLh int” value ([3]; human liver microsomes) is given as 46 μL/min/mg protein.
With CO[C@H]1/C=C/O[C@@]2(C)Oc3c(C)c(O)c4c(O)c(c(/C=N/N5CCN(C)CC5)c(O)c4c3C2=O)NC(=O)/C(C)=C\C=C\[C@H](C)[C@H](O)[C@@H](C)[C@@H](O)[C@@H](C)[C@H](OC(C)=O)[C@@H]1C [Rifampicin] the Papp at 180 min [1] was 1.73 ×10⁻⁶ cm/s and the logD [2] was 1.61.
CO[C@H]1C[C@@H]2CC[C@@H](C)[C@@](O)(O2)C(=O)C(=O)N2CCCC[C@H]2C(=O)O[C@H]([C@H](C)C[C@@H]2CC[C@@H](O)[C@H](OC)C2)CC(=O)[C@H](C)/C=C(\C)[C@@H](O)[C@@H](OC)C(=O)[C@H](C)C[C@H](C)/C=C/C=C/C=C/1C [Rapamycin] gave a Papp at 180 min [1] of 1.84 ×10⁻⁶ cm/s and a logD [2] of 4.36.
C[C@H]1O[C@@H](O[C@H]2[C@@H](O)C[C@H](O[C@H]3[C@@H](O)C[C@H](O[C@H]4CC[C@@]5(C)[C@H](CC[C@@H]6[C@@H]5C[C@@H](O)[C@]5(C)[C@@H](C7=CC(=O)OC7)CC[C@]65O)C4)O[C@@H]3C)O[C@@H]2C)C[C@H](O)[C@@H]1O [Digoxin] showed a Papp at 180 min [1] of 0.264 ×10⁻⁶ cm/s.
With CO[C@H]1/C=C/O[C@@]2(C)Oc3c(C)c(O)c4c(c3C2=O)C2=NC3(CCN(CC(C)C)CC3)NC2=C(NC(=O)/C(C)=C\C=C\[C@H](C)[C@H](O)[C@@H](C)[C@@H](O)[C@@H](C)[C@H](OC(C)=O)[C@@H]1C)C4=O [Rifabutin] the Papp at 180 min [1] was 1.08 ×10⁻⁶ cm/s and the logD [2] was 3.88.
In the case of CC(C)C[C@H]1C(=O)N(C)[C@@H](CC(C)C)C(=O)N[C@H](C(=O)N2CCCCC2)CC(=O)N(C)CCC(=O)N(C)[C@@H](Cc2ccccc2)C(=O)N[C@@H]([C@@H](C)O)C(=O)N(C)CC(=O)N[C@@H](COC(C)(C)C)C(=O)N1C [Compound (6)] ([NMeβAla][NMeF]T[Sar]S(tBu)[NMeL][NMeL]D-Piperidide; lactam N-8), the logD at 2 h (physchem) is listed as 3.19 and the “intrinsic hepatic clearance CLh int” value ([3]; human, microsomes) is listed as 86 μL/min/mg protein.
Work on CC[C@H]1OC(=O)[C@H](C)[C@@H](O[C@H]2C[C@@](C)(OC)[C@@H](O)[C@H](C)O2)[C@H](C)[C@@H](O[C@@H]2O[C@H](C)C[C@H](N(C)C)[C@H]2O)[C@](C)(O)C[C@@H](C)C(=O)[C@H](C)[C@@H](O)[C@]1(C)O [Erythromycin] yielded a Papp at 180 min [1] of 0.382 ×10⁻⁶ cm/s and a logD [2] of 0.89.
